Consider two compounds from US10758512B2 (KOREA INSTITUTE OF SCIENCE AND TECHNOLOGY, priority 2016, dated 2020).

Data set [1] concerns DU145 cells. Nature of the data set: Cell viability of human prostate cell line (EZCytox). It is filed as cell-based. The settings on record: 48 hours, relative to DMSO control (FIG. 4). The protocol: With regard to the human prostate cancer cell line DU145 cultured and maintained in Experimental Example 1, the culture medium and prostate cell culture were mixed, and 1×10^4 cells were seeded in a 96-well plate, and then cultured for 24 hours under conditions of 5% carbon dioxide and 37° C.
After being stabilized, the cells were treated with only 0.2% dimethyl sulfoxide as a control group, treated with testosterone (100 ng/mL or 200 ng/mL) alone, or treated with testosterone and 10 μM finasteride as a positive control, or testosterone and 1 μM, 10 μM, or 20 μM fucoxanthin, and then cultured for 48 hours.
Thereafter, the media were collected for LC-MS/MS analysis, and then cell viability of prostate cells was measured in order to examine whether treatment of the compound influences growth of the prostate cells. The cell viability was determined by measuring absorbance at 450 nm after adding an EZCytox reagent (Daeil Lab Service, Korea) and culturing for 1-4 hours under conditions of 5% carbon dioxide and 37° C. The cell viability was calculated as a percentage relative to cell viability of the control group treated with dimethyl sulfoxide (DMSO) only.

Data set [2] deals with dihydrotestosterone production in prostate cell DU145. Nature of the data set: Dihydrotestosterone production-inhibitory activity in prostate cells (LC-MS/MS). It is filed as cell-based, human. The settings on record: 48 hours. The procedure:
CWR-22Rv1, LNCaP, DU145, and PC-3 cells which are human prostate cancer cell lines were cultured and maintained in an RPMI medium (Roswell Park Memorial Institute medium) supplemented with 10% heat-inactivated fetal bovine serum (FBS), 10 U/mL penicillin, and 100 μg/mL streptomycin under conditions of 5% carbon dioxide and 37° C. The internal standard compound was dissolved in dimethyl sulfoxide at a concentration of 10 μM, and 1 μL thereof was added to 150 μL of cell culture, and treated to a cartridge to perform sample pretreatment. […] Thereafter, re-solvation was performed by using 50% aqueous methanol, and products were kept frozen at −20° C. Mass spectrometry of the stored samples was performed by using an AB SCIEX API 4000 QTRAP tandem quadrupole mass spectrometer. HPLC system used herein was Agilent 1200 pump, and solvent A was water/acetonitrile (95:5 v/v, 0.1% formic acid), and solvent B was acetonitrile/water (95:5 v/v, 0.1% formic acid). For chromatography separation, a linear gradient from 40% B solvent to 100% B solvent in 8 minutes was used. An analysis column used herein was an XTerra MS C18 column (2.1 mm×150 mm, 3.5 μm) of Waters corporation, and analysis was performed while maintaining temperature at 25° C. and a flow rate of 0.2 mL/min. […]

Turning to `CC(=O)O[C@H]1CC(C)(C)C(=C=C/C(C)=C/C=C/C(C)=C/C=C/C=C(C)/C=C/C=C(\C)C(=O)C[C@@]23O[C@]2(C)C[C@@H](O)CC3(C)C)[C@](C)(O)C1` [fucoxanthin], in data set [1] (DU145, testosterone plus fucoxanthin 1 μM, 10 μM or 20 μM), the “cell viability of prostate cells” value is “did not influence cell viability”. Moreover, the dihydrotestosterone production entry in data set [2] (DU145, testosterone 100 ng/mL plus fucoxanthin 1 μM, 10 μM, 20 μM, vs testosterone alone, inhibition increased with concentration (FIG. 3)) is given as “remarkably inhibited”.
On to `CC(C)(C)NC(=O)[C@H]1CC[C@H]2[C@@H]3CC[C@H]4NC(=O)C=C[C@]4(C)[C@H]3CC[C@]12C` [finasteride], for which the “cell viability of prostate cells” value in data set [1] (DU145, testosterone plus finasteride 10 μM) is recorded as “did not influence cell viability”. The dihydrotestosterone production result in data set [2] (DU145, testosterone 100 ng/mL plus finasteride 10 μM, vs testosterone alone (FIG. 3)) is listed as “remarkably inhibited”.
